Like-named read-outs stand apart in the source and are kept apart here.
Columns and labels:
[1] = tested on: NO production in LPS-activated BV-2 cells; test: NO production assay (Griess) in LPS-activated BV-2 cells; assay type: cell-based, murine; conditions: read-out: NO Inhibition IC50
Description: (§1) 3-(4,5-dimethylthiazol-2-yl)-2,5-diphenyl-tetrazolium bromide (MTT) assay was performed to evaluate the cytotoxicity of the samples to the microglia. BV2 cells at the density of 4 × 10^4 cells /well were seeded in the 96 well plate and incubated for 24 h. Seeded cells were pre-treated with different concentration of the samples, and LPS (100 ng/ml) activation was performed after 30 min of compound treatment. Treated plate were incubated for 24 h in the incubator and nitric oxide assay and cell viability assay was performed. Treated cell’s conditioned medium was used to evaluate the NO assay, and the attached cells were used to evaluate the cell viability assay. 50 µL of conditioned medium (CM) from treated cells were transferred to a new 96 well plate for NO assay. This CM was mixed with the equal volume of the mixture of Gries reagent ((1% sulfanilamide and 0.1% N-1-napthylethylenediamine dihydrochloride). NaNO2 was used as standard and the colorimetric change were evidenced by measuring its OD at 540 nm in a microplate reader. The cells in the plate were incubated for 1 h with MTT solution making it the final concentration of […]. Blue stained cells were incubated with 200 ul of DMSO and the solution get changed to purple/formazan color and it was observed by measuring the absorbance at 570 nm in a microplate reader.NG-mono-methyl-L-arginine (L-NMMA), a well-known nitric oxide synthase (NOS) inhibitor, was used as a positive control.

GSK3β = GSK3β (Homo sapiens, UniProt P49841); test: GSK3β radiolabelled kinase assay (% residual activity, IC50, ATP competition); assay type: biochemical; conditions: at 10 μM compound
BV-2 cells = test: MTT cell viability assay; assay type: cell-based, murine; conditions: 5 μM compound, % of LPS, mean ± SD
Description: as §1

iNOS = test: Western blot of iNOS in LPS-induced BV-2 cells; assay type: cell-based, murine; conditions: 0.01 to 1 uM, LPS-induced BV-2 cells
Description: (§2) Western blot analysis was performed to see the protein expression of the iNOS and COX-2 in the BV2 cells. BV2 cells were seeded in a 6 well plate at the density of 6 × 10^5 cells/well overnight and cells were treated as mentioned earlier in the cell treatment section and this time treatment was performed for 6 h only. After 6 h, cells were harvested and lysed with lysis buffer containing (RIPA, protease inhibitor & phosphatase inhibitor), protein estimation was performed using biorad assay and the 30 µg of total protein was separated by 8% SDS-PAGE gel electrophoresis, transferred to nitrocellulose membranes, and incubated with primary antibodies against tubulin, iNOS, COX-2, and α-tubulin. […] membranes were incubated with horseradish peroxidase-conjugated secondary antibodies, and protein bands were visualized using ECL Western Blotting Detection Reagents (Amersham Pharmacia Biotech). Quantitative analysis of the protein bands was quantified using Image Master 2D Elite software (version 3.1, Amersham Pharmacia Biotech).

MTT cell viability assay = assay type: cell-based, murine; conditions: mouse, BV-2 microglia cells (LPS-activated), mean ± SD
Description: as §1

COX-2 = test: Western blot of COX-2 in LPS-induced BV-2 cells; assay type: cell-based, murine; conditions: 0.01 to 1 uM
Description: as §2

PI3KC3 = biological target: T1, PI3KC3 (Homo sapiens, UniProt Q8NEB9); test: Kinase panel assay (lipid kinase); assay type: biochemical; conditions: control PIK-93
T1 construct: purchased Reaction Biology Corp
Description: (§3) Every inhibitory activity of tested compounds was measured by radiolabelled method of Reaction Biology Corp). The radiolabelled ATP ([γ-^33P] ATP) replaced a substrate with ^33P-phosphorylated substrate so that the activity of a kinase was measured from the radiolabelled phosphorylated substrate. Kinase panel assay was tested at 30 μM testing compounds with an ATP concentration of 10 μM and a substrate concentration of 10 μM. % Residual activity against GSK3β was measured at 10 uM compounds 1 and 2. […] Curve fits of control compounds were performed where the enzyme activities at the highest concentration of compounds were less than 65%. The concentration of DMSO was controlled and raw data, % kinase activity was calculated relative to DMSO controls.

PI4K2A = biological target: T2, PI4K2A (Homo sapiens, UniProt Q9BTU6); test: Kinase panel assay (lipid kinase); assay type: biochemical; conditions: control PIK-93
T2 construct: purchased Reaction Biology Corp
Description: as §3

PIP5K1C = biological target: T3, PIP5K1C (Homo sapiens, UniProt O60331); test: Kinase panel assay (lipid kinase); assay type: biochemical; conditions: control PIK-93
T3 construct: purchased Reaction Biology Corp
Description: as §3

PIP5K1A = biological target: T4, PIP5K1A (Homo sapiens, UniProt Q99755); test: Kinase panel assay (lipid kinase); assay type: biochemical; conditions: control PIK-93
T4 construct: purchased Reaction Biology Corp
Description: as §3

PI3KC2A = biological target: T5, PI3KC2A (Homo sapiens, UniProt O00443); test: Kinase panel assay (lipid kinase); assay type: biochemical; conditions: read-out: IC50 (M) of Control (+)
T5 construct: purchased Reaction Biology Corp
Description: as §3

GSK3β, sequence (P49841 whole entry): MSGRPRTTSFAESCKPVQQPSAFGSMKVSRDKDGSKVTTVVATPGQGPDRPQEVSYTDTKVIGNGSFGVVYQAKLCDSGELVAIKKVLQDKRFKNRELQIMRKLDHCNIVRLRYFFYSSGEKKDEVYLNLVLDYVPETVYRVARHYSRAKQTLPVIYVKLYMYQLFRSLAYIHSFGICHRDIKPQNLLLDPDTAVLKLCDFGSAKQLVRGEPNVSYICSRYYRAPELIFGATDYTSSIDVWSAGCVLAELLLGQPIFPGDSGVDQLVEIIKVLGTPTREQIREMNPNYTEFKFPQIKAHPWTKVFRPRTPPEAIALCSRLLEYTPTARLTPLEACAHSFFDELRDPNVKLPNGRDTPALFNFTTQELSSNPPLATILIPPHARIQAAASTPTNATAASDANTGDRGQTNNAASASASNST
T5 sequence (O00443 whole entry): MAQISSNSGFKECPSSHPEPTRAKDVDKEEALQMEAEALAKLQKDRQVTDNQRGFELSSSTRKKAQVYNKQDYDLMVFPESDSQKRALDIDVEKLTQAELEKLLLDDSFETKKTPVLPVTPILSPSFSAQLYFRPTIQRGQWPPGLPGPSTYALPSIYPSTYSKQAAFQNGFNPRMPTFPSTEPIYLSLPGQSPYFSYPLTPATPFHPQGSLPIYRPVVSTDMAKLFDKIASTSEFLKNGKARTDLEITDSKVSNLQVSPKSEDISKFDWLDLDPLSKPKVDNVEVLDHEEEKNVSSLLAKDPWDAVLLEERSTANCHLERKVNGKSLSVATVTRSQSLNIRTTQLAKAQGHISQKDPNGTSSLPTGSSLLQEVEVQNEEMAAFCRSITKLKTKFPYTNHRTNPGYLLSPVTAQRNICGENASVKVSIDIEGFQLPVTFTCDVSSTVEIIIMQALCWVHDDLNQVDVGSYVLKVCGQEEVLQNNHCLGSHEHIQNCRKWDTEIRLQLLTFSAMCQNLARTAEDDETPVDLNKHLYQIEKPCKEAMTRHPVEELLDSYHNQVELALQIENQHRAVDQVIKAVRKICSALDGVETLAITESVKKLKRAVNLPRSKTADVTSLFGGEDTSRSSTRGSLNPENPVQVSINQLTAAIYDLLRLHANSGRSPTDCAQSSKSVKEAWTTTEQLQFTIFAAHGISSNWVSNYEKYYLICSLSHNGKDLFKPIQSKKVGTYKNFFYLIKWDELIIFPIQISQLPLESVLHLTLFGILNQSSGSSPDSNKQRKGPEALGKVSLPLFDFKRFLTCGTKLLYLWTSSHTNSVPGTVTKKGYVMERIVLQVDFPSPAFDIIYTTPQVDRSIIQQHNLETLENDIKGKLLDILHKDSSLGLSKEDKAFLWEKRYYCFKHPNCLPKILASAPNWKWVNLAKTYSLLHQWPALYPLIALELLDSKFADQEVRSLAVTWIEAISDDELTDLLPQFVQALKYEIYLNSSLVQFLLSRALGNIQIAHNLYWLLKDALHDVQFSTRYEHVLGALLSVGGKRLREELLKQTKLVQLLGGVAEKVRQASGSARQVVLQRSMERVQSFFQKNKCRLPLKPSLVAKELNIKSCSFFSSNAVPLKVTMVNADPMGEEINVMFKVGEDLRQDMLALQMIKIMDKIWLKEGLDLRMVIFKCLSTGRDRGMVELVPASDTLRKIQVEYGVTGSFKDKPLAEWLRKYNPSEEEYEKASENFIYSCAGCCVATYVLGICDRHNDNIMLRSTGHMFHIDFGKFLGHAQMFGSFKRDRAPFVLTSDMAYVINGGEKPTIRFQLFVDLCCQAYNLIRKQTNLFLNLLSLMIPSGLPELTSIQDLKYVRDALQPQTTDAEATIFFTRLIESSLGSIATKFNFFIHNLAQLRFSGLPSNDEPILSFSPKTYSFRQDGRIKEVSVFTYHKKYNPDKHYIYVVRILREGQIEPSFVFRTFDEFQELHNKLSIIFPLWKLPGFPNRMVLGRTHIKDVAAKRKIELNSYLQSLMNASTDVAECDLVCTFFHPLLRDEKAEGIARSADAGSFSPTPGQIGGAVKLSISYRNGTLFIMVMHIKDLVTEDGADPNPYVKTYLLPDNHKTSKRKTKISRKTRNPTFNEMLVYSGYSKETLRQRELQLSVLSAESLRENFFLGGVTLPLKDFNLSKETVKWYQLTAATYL
T1 sequence (Q8NEB9 whole entry): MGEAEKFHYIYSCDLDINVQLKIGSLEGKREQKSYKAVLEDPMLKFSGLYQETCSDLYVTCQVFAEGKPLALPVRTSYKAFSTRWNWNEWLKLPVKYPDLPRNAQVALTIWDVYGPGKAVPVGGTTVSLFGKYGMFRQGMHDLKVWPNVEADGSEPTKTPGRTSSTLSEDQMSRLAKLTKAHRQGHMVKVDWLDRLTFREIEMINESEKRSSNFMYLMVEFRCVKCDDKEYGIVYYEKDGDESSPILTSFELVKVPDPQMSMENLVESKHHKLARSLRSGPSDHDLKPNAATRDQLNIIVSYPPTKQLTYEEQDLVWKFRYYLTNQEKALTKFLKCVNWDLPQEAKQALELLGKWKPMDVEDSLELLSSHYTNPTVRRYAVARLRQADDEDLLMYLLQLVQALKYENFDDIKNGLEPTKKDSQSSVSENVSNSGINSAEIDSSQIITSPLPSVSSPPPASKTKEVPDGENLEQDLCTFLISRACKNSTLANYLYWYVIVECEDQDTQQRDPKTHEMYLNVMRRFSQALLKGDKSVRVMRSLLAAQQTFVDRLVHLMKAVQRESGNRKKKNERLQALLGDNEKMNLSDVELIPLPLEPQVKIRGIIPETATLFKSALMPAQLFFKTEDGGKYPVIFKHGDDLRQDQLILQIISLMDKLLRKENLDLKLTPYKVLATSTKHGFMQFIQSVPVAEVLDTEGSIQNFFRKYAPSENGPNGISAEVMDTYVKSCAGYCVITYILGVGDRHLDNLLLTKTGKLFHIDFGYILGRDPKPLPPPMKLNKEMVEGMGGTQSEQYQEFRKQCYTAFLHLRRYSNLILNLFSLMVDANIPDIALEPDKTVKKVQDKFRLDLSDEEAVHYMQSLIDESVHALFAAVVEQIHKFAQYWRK
T2 sequence (Q9BTU6 whole entry): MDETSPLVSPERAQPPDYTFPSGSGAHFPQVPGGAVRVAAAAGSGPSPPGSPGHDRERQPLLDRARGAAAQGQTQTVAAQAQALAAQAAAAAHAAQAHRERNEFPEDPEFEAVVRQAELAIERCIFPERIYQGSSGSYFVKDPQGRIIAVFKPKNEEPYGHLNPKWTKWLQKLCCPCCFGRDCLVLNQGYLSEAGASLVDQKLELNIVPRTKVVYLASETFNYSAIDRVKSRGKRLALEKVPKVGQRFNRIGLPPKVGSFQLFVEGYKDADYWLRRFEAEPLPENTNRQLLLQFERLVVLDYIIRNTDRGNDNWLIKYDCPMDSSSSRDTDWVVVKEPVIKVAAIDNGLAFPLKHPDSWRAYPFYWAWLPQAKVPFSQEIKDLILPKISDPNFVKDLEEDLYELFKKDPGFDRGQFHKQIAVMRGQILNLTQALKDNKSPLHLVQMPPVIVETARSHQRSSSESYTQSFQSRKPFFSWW
T4 sequence (Q99755 whole entry): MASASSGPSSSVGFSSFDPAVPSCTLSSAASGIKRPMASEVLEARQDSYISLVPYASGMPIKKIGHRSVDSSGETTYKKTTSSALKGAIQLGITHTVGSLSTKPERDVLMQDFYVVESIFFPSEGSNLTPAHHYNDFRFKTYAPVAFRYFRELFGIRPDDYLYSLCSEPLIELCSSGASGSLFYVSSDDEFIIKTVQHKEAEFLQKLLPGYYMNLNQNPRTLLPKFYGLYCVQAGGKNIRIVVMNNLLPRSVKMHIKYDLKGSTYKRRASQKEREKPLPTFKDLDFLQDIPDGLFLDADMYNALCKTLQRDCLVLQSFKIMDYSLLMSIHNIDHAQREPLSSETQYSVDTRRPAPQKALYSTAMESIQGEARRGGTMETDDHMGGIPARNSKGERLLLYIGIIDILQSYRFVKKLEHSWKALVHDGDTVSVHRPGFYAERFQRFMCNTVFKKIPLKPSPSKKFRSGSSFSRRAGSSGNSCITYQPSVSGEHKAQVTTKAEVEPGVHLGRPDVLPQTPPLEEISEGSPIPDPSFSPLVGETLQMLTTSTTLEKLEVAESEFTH
T3 sequence (O60331 whole entry): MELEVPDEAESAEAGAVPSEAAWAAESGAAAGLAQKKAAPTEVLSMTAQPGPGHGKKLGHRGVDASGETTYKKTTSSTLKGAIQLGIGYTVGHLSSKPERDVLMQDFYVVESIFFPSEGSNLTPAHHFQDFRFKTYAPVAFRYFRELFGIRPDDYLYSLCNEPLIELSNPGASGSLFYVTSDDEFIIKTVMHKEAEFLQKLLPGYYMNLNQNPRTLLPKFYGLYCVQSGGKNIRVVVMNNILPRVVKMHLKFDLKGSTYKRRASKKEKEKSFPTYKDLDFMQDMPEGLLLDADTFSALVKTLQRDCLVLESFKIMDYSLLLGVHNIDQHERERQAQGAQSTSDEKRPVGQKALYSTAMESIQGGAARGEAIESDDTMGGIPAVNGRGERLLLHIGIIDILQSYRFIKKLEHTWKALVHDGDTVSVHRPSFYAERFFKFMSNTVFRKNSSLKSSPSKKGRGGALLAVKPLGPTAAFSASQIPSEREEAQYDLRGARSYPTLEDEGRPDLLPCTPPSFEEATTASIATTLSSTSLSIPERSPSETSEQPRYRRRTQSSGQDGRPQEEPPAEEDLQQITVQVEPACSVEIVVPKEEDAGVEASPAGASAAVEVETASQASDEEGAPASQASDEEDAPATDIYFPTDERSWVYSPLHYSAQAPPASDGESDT

With `O=C1C=CC2(C=C1)OCC(Cc1ccccc1CS(=O)(=O)c1ccccc1)C(=O)N2c1ccccc1` (centres unmarked) [1b] as the compound, how does the IC50 [1] read?
The IC50 was 980 ± 30 nM.

What about the “% GSK3β Residual Activity” value (GSK3β) of the same compound?
The value was 91.0 ± 12.6%.

What about the “Cell Viability (%)” value (BV-2 cells) of the same compound?
Its value is 84 ± 3%.

With `O=C1C=CC2(C=C1)OCC(Cc1cn(-c3ccccc3)nn1)C(=O)N2c1ccccc1` (centres unmarked) [2a, 5-Phenyl-3-((1-phenyl-1H-1,2,3-triazol-4-yl)methyl)-1-oxa-5-azaspiro[5.5]undeca-7,10-diene-4,9-dione] as the compound, how does the IC50 ([1]; Mus musculus) read?
The IC50 was 670 ± 50 nM.

What about the remaining activity at 10 µM (GSK3β) of the same compound?
The remaining activity at 10 µM was 62.3 ± 2.3%.

What about the “iNOS expression level” value (iNOS) of the same compound?
The value was “limited potency and efficacy”.

What about the viability at 24 h, 1 µM (MTT cell viability assay; 1 μM compound) of the same compound?
The viability at 24 h, 1 µM was 92.9 ± 0.24%.

What about the viability at 24 h, 5 µM (MTT cell viability assay; 5 μM compound, % of LPS) of the same compound?
The viability at 24 h, 5 µM was 81 ± 3%.

And the “COX-2 expression level” value (COX-2)?
Its value is “limited potency and efficacy”.

With `CC(=O)Nc1nc(C)c(-c2ccc(Cl)c(S(=O)(=O)NCCO)c2)s1` [PIK-93, reference compound] as the compound, how does the IC50 (PI3KC3) read?
The IC50 was 75.7 nM.

What about the IC50 (PI4K2A) of the same compound?
The IC50 was 18500 nM.

And the IC50 (PIP5K1C)?
The IC50 was 17500 nM.

And the IC50 (PIP5K1A)?
The IC50 was 61800 nM.

Which IC50 (PI3KC2A) does the source give for `Oc1cccc(-c2nc(N3CCOCC3)c3oc4ncccc4c3n2)c1` [PI-103, reference compound] here?
The IC50 was 4.8e-07 M.
